Source: PubChem BioAssay (NCI)
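Dose response: 5 concentrations. Exposure: 48 h. Format: 96-well plates. Endpoint: linear interpolation; highest concentration if not reached. TGI: total growth inhibition.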

Assays:
Assay in all cases: NCI tumour cell line growth inhibition, 48 h
786-0 renal = system: 786-0 renal
A498 renal = system: A498 renal
A549 NSCLC = system: A549 NSCLC
ACHN renal = system: ACHN renal
BT-549 breast = system: BT-549 breast
CAKI-1 renal = system: CAKI-1 renal
CCRF-CEM leukemia = system: CCRF-CEM leukemia
COLO 205 colon = system: COLO 205 colon
DU-145 prostate = system: DU-145 prostate
EKVX NSCLC = system: EKVX NSCLC
HCC-2998 colon = system: HCC-2998 colon
HCT-116 colon = system: HCT-116 colon
HCT-15 colon = system: HCT-15 colon
HL-60(TB) leukemia = system: HL-60(TB) leukemia
HOP-62 NSCLC = system: HOP-62 NSCLC
HT29 colon = system: HT29 colon
IGROV1 ovarian = system: IGROV1 ovarian
K-562 leukemia = system: K-562 leukemia
KM12 colon = system: KM12 colon
LOX IMVI melanoma = system: LOX IMVI melanoma
MALME-3M melanoma = system: MALME-3M melanoma
MCF7 breast = system: MCF7 breast
MDA-MB-231 breast = system: MDA-MB-231 breast
MDA-MB-435 = system: MDA-MB-435
MDA-N = system: MDA-N
MOLT-4 leukemia = system: MOLT-4 leukemia
NCI-H226 lung = system: NCI-H226 lung
NCI-H23 lung = system: NCI-H23 lung
NCI-H460 lung = system: NCI-H460 lung
NCI/ADR-RES ovarian = system: NCI/ADR-RES ovarian
OVCAR-4 ovarian = system: OVCAR-4 ovarian
OVCAR-5 ovarian = system: OVCAR-5 ovarian
OVCAR-8 ovarian = system: OVCAR-8 ovarian
RPMI-8226 leukemia = system: RPMI-8226 leukemia
RXF 393 renal = system: RXF 393 renal
SF-268 CNS = system: SF-268 CNS
SF-295 CNS = system: SF-295 CNS
SF-539 CNS = system: SF-539 CNS
SK-MEL-28 melanoma = system: SK-MEL-28 melanoma
SK-MEL-5 melanoma = system: SK-MEL-5 melanoma
SK-OV-3 ovarian = system: SK-OV-3 ovarian
SN12C renal = system: SN12C renal
SNB-19 CNS = system: SNB-19 CNS
SNB-75 CNS = system: SNB-75 CNS
SR leukemia = system: SR leukemia
SW-620 colon = system: SW-620 colon
T-47D breast = system: T-47D breast
TK-10 renal = system: TK-10 renal
U251 CNS = system: U251 CNS
UACC-257 melanoma = system: UACC-257 melanoma
UACC-62 melanoma = system: UACC-62 melanoma
UO-31 renal = system: UO-31 renal
HS 578T breast = system: HS 578T breast
M14 melanoma = system: M14 melanoma
NCI-H522 lung = system: NCI-H522 lung
OVCAR-3 ovarian = system: OVCAR-3 ovarian
PC-3 prostate = system: PC-3 prostate
SK-MEL-2 melanoma = system: SK-MEL-2 melanoma

## CC1=C(c2ccccc2)NC(=S)C(C)C(c2ccccc2)=N1 (stereo not given)
786-0 renal
  TGI: > 100 µM
A498 renal
  TGI: > 100 µM
A549 NSCLC
  TGI: > 100 µM
ACHN renal
  TGI: > 100 µM
BT-549 breast
  TGI: > 100 µM
CAKI-1 renal
  TGI: > 100 µM
CCRF-CEM leukemia
  TGI: 47.1 µM
COLO 205 colon
  TGI: > 100 µM
DU-145 prostate
  TGI: > 100 µM
EKVX NSCLC
  TGI: > 100 µM
HCC-2998 colon
  TGI: > 100 µM
HCT-116 colon
  TGI: > 100 µM
HCT-15 colon
  TGI: > 100 µM
HL-60(TB) leukemia
  TGI: 35.1 µM
HOP-62 NSCLC
  TGI: > 100 µM
HT29 colon
  TGI: > 100 µM
IGROV1 ovarian
  TGI: > 100 µM
K-562 leukemia
  TGI: 28.6 µM
KM12 colon
  TGI: > 100 µM
LOX IMVI melanoma
  TGI: > 100 µM
MALME-3M melanoma
  TGI: > 100 µM
MCF7 breast
  TGI: > 100 µM
MDA-MB-231 breast
  TGI: > 100 µM
MDA-MB-435
  TGI: 69.3 µM
MDA-N
  TGI: 46.8 µM
MOLT-4 leukemia
  TGI: 54.1 µM
NCI-H226 lung
  TGI: > 100 µM
NCI-H23 lung
  TGI: 70.4 µM
NCI-H460 lung
  TGI: > 100 µM
NCI/ADR-RES ovarian
  TGI: > 100 µM
OVCAR-4 ovarian
  TGI: > 100 µM
OVCAR-5 ovarian
  TGI: > 100 µM
OVCAR-8 ovarian
  TGI: > 100 µM
RPMI-8226 leukemia
  TGI: 57.5 µM
RXF 393 renal
  TGI: 61.6 µM
SF-268 CNS
  TGI: > 100 µM
SF-295 CNS
  TGI: > 100 µM
SF-539 CNS
  TGI: 30.9 µM
SK-MEL-28 melanoma
  TGI: > 100 µM
SK-MEL-5 melanoma
  TGI: 82.9 µM
SK-OV-3 ovarian
  TGI: > 100 µM
SN12C renal
  TGI: > 100 µM
SNB-19 CNS
  TGI: > 100 µM
SNB-75 CNS
  TGI: > 100 µM
SR leukemia
  TGI: > 100 µM
SW-620 colon
  TGI: > 100 µM
T-47D breast
  TGI: > 100 µM
TK-10 renal
  TGI: > 100 µM
U251 CNS
  TGI: > 100 µM
UACC-257 melanoma
  TGI: > 100 µM
UACC-62 melanoma
  TGI: > 100 µM
UO-31 renal
  TGI: > 100 µM

## CN(C)CCNC(=O)c1cccc(N(C)C(=O)c2ccccc2)c1[N+](=O)[O-]
786-0 renal
  TGI: > 100 µM
A498 renal
  TGI: > 100 µM
A549 NSCLC
  TGI: > 100 µM
ACHN renal
  TGI: > 100 µM
BT-549 breast
  TGI: > 100 µM
CAKI-1 renal
  TGI: > 100 µM
CCRF-CEM leukemia
  TGI: > 100 µM
COLO 205 colon
  TGI: > 10 µM
DU-145 prostate
  TGI: > 100 µM
HCC-2998 colon
  TGI: > 100 µM
HCT-116 colon
  TGI: > 100 µM
HCT-15 colon
  TGI: > 100 µM
HL-60(TB) leukemia
  TGI: > 100 µM
HOP-62 NSCLC
  TGI: > 100 µM
HS 578T breast
  TGI: > 100 µM
HT29 colon
  TGI: > 100 µM
IGROV1 ovarian
  TGI: > 100 µM
K-562 leukemia
  TGI: > 100 µM
KM12 colon
  TGI: > 100 µM
M14 melanoma
  TGI: > 100 µM
MALME-3M melanoma
  TGI: > 100 µM
MCF7 breast
  TGI: > 100 µM
MDA-MB-231 breast
  TGI: > 100 µM
MDA-MB-435
  TGI: > 100 µM
MDA-N
  TGI: > 100 µM
MOLT-4 leukemia
  TGI: > 100 µM
NCI-H226 lung
  TGI: > 100 µM
NCI-H23 lung
  TGI: > 100 µM
NCI-H460 lung
  TGI: > 100 µM
NCI-H522 lung
  TGI: > 100 µM
NCI/ADR-RES ovarian
  TGI: > 100 µM
OVCAR-3 ovarian
  TGI: > 100 µM
OVCAR-5 ovarian
  TGI: > 100 µM
OVCAR-8 ovarian
  TGI: > 100 µM
PC-3 prostate
  TGI: > 100 µM
SF-268 CNS
  TGI: > 100 µM
SF-295 CNS
  TGI: > 100 µM
SF-539 CNS
  TGI: > 100 µM
SK-MEL-2 melanoma
  TGI: > 100 µM
SK-MEL-28 melanoma
  TGI: > 100 µM
SK-MEL-5 melanoma
  TGI: > 100 µM
SK-OV-3 ovarian
  TGI: > 100 µM
SN12C renal
  TGI: > 10 µM
SNB-19 CNS
  TGI: > 100 µM
SNB-75 CNS
  TGI: > 100 µM
SR leukemia
  TGI: > 100 µM
SW-620 colon
  TGI: > 100 µM
T-47D breast
  TGI: > 100 µM
TK-10 renal
  TGI: > 100 µM
U251 CNS
  TGI: > 100 µM
UACC-257 melanoma
  TGI: > 10 µM
UACC-62 melanoma
  TGI: > 100 µM
UO-31 renal
  TGI: > 100 µM
